Data on 36 compounds can be found in patent US20080318933A1, “5-Sulfonyl-1-Piperidinyl Substituted Indole Derivatives as 5-Ht6 Receptor Antagonists for the Treatment of Cns Disorders” (Glaxo Group Limited, priority 2004, published 2008).

SMILES strings stand for the structures. Where a name gives a salt, the structure may show the parent alone.

The target in the assay is T1, human cloned 5-HT6 receptors (Homo sapiens, UniProt P50406).
T1 construct: expressed in transfected cells; host or cells: HeLa cells expressing cloned human 5-HT6 receptor (membranes)
T1 sequence (P50406 whole entry): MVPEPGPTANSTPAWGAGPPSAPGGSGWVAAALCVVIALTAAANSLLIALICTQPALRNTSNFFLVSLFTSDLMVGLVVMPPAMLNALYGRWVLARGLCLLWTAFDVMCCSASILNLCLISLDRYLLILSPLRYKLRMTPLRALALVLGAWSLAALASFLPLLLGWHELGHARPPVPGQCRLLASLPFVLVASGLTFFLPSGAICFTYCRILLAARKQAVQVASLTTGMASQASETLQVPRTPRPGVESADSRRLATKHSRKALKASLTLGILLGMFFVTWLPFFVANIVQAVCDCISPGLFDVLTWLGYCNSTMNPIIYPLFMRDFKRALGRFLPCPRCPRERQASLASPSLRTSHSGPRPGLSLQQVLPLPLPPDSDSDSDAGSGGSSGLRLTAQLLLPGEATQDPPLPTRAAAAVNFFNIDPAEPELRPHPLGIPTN
The assay can be described thus: Cyclase assay (cAMP production in membranes of HeLa 5HT6 cells, 5-HT stimulated). The conditions noted are these: 5-HT at 4xEC50, functional Ki by Cheng-Prusoff, read-out: pKi values (converted). The format is biochemical. As to the method: 0.5 μl of test compound in 100% dimethylsulfoxide (DMSO) was added to a white, solid 384 well assay plate (for dose response measurements the top of the concentration range is 7.5 μM final). 10 μl of washed membranes of HeLa 5HT6 cells (for preparation see WO 98/27081) in basic buffer (50 mM HEPES pH 7.4 (KOH), 10 mM MgCl2, 100 mM NaCl, 10 μM 3-isobutyl-1-methylxanthine (IBMX) (Sigma-Aldrich)) was added to all wells followed by 10 μl 2×ATP buffer (i.e. basic buffer containing 3 mM ATP) with 5-HT (at a concentration equivalent to a dose response of 4×EC50). The resultant mixture was then incubated at room temperature for 30-45 minutes to allow cAMP production. cAMP production was then measured using the DiscoveRX™ HitHunter™ chemiluminescence cAMP assay kit (DiscoveRx Corporation, 42501 Albrae Street, Fremont, Calif. 94538; Product Code: 90-0004L) or any other suitable cAMP measurement assay.
IC50 values were estimated from arbitrary designated unit (ADU) measurements from a Perkin Elmer Viewlux instrument using a four parameter logistic curve fit within EXCEL (Bowen, W. P. and Jerman, J. C. (1995), Nonlinear regression using spreadsheets. Trends in Pharmacol. Sci., 16, 413-417). Functional Ki values were calculated using the method of Cheng, Y. C. and Prussof, W. H. (Biochemical Pharmacol (1973) 22 3099-3108). plC50 and fpKi are the negative log 10 of the molar IC50 and functional Ki respectively.
For orientation: Cyclic AMP is a second messenger, typically raised through Gs and lowered through Gi signalling.
For the compound `O=S(=O)(c1ccccc1)c1ccc2c(ccn2C2CCNCC2)c1` [Example E1, 5-(Phenylsulfonyl)-1-(4-piperidinyl)-1H-indole hydrochloride], the Ki was no more than 10 nM.

Take `CN1CCC(n2ccc3cc(S(=O)(=O)c4ccccc4)ccc32)CC1` [Example E2, 1-(1-Methyl-4-piperidinyl)-5-(phenylsulfonyl)-1H-indole hydrochloride]: the Ki is no more than 10 nM.

`O=S(=O)(c1ccccc1)c1ccc2c(c1)CCN2C1CCNCC1` [Example E3a, 5-(Phenylsulfonyl)-1-(4-piperidinyl)-2,3-dihydro-1H-indole hydrochloride]: the Ki was no more than 10 nM.

Take `CN1CCC(N2CCc3cc(S(=O)(=O)c4ccccc4)ccc32)CC1` [Example E4, 1-(1-Methyl-4-piperidinyl)-5-(phenylsulfonyl)-2,3-dihydro-1H-indole hydrochloride]: the Ki is no more than 10 nM.

With `CN1CCC(N2CC(C)(C)c3cc(S(=O)(=O)c4ccccc4)ccc32)CC1` [Example E5, 3,3-Dimethyl-1-(1-methyl-4-piperidinyl)-5-(phenylsulfonyl)-2,3-dihydro-1H-indole hydrochloride], the Ki was less than 316 nM.

Turning to `O=S(=O)(c1ccccc1)c1ccc2c(c1)CCN2C1CCN2CCCC2C1` (stereo not drawn) [Example E6, 1-(Octahydro-7-indolizinyl)-5-(phenylsulfonyl)-2,3-dihydro-1H-indole hydrochloride], the Ki was no more than 10 nM.

With `CC1(N2CCc3cc(S(=O)(=O)c4ccccc4)ccc32)CCNCC1` [Example E7, 1-(4-Methyl-4-piperidinyl)-5-(phenylsulfonyl)-2,3-dihydro-1H-indole hydrochloride], the Ki was less than 316 nM.

As to `O=S(=O)(c1cccc(F)c1)c1ccc2c(c1)CCN2C1CCNCC1` [Example E8, 5-[(3-Fluorophenyl)sulfonyl]-1-(4-piperidinyl)-2,3-dihydro-1H-indole hydrochloride], the Ki was no more than 10 nM.

For the compound `O=S(=O)(c1ccc2c(c1)CCN2C1CCNCC1)c1ccccc1F` [Example E9, 5-[(2-Fluorophenyl)sulfonyl]-1-(4-piperidinyl)-2,3-dihydro-1H-indole hydrochloride], the Ki was no more than 10 nM.

On to `O=S(=O)(c1cc(F)cc(F)c1)c1ccc2c(c1)CCN2C1CCNCC1` [Example E10, 5-[(3,5-Difluorophenyl)sulfonyl]-1-(4-piperidinyl)-2,3-dihydro-1H-indole hydrochloride], for which the Ki is no more than 10 nM.

With `Cc1ccc(S(=O)(=O)c2ccc3c(c2)CCN3C2CCNCC2)cc1` [Example E11, 5-[(4-methylphenyl)sulfonyl]-1-(4-piperidinyl)-2,3-dihydro-1H-indole], the Ki is no more than 10 nM.

For `O=S(=O)(c1ccc2c(c1)CCN2C1CCNCC1)c1ccccc1Cl` [Example E12, 5-[(2-Chlorophenyl)sulfonyl]-1-(4-piperidinyl)-2,3-dihydro-1H-indole hydrochloride], the Ki is no more than 10 nM.

In the case of `O=S(=O)(c1ccc(Cl)cc1)c1ccc2c(c1)CCN2C1CCNCC1` [Example E13, 5-[(4-Chlorophenyl)sulfonyl]-1-(4-piperidinyl)-2,3-dihydro-1H-indole hydrochloride], the Ki was no more than 10 nM.

With `O=S(=O)(c1ccc2c(ccn2C2CCNCC2)c1)c1ccccc1F` [Example E14, 5-[(2-fluorophenyl)sulfonyl]-1-(4-piperidinyl)-1H-indole hydrochloride], the Ki was no more than 10 nM.

`O=S(=O)(c1ccc(F)cc1)c1ccc2c(c1)CCN2C1CCNCC1` [Example E15a, 5-[(4-Fluorophenyl)sulfonyl]-1-(4-piperidinyl)-2,3-dihydro-1H-indole hydrochloride]: the Ki was no more than 10 nM.

Regarding `O=S(=O)(c1ccccc1)c1ccc2c(c1)CCN2C1CCCNCC1` (stereo not drawn) [Example E16a, 1-(Hexahydro-1H-azepin-4-yl)-5-(phenylsulfonyl)-2,3-dihydro-1H-indole], the Ki was no more than 10 nM.

On to `O=S(=O)(c1ccccc1)c1ccc2c(c1)CCN2C1CCNC1` (stereo not drawn) [Example E17a, 5-(Phenylsulfonyl)-1-(3-pyrrolidinyl)-2,3-dihydro-1H-indole], for which the Ki is no more than 10 nM.

With `O=S(=O)(c1ccccc1)c1cc(F)c2c(c1)CCN2C1CCNCC1` [Example E18a, 7-Fluoro-5-(phenylsulfonyl)-1-(4-piperidinyl)-2,3-dihydro-1H-indole hydrochloride], the Ki was no more than 10 nM.

As to `O=S(=O)(c1ccccc1)c1cc(Cl)c2c(c1)CCN2C1CCNCC1` [Example E19a, 7-Chloro-5-(phenylsulfonyl)-1-(4-piperidinyl)-2,3-dihydro-1H-indole hydrochloride], the Ki is no more than 10 nM.

On to `N#Cc1ccccc1S(=O)(=O)c1ccc2c(c1)CCN2C1CCNCC1` [Example E20, 2-{[1-(4-Piperidinyl)-2,3-dihydro-1H-indol-5-yl]sulfonyl}-benzonitrile hydrochloride], for which the Ki is no more than 10 nM.

As to `N#Cc1cccc(S(=O)(=O)c2ccc3c(c2)CCN3C2CCNCC2)c1` [Example E21, 3-{[1-(4-Piperidinyl)-2,3-dihydro-1H-indol-5-yl]sulfonyl}benzonitrile hydrochloride], the Ki was no more than 10 nM.

As for `O=S(=O)(c1cccc(F)c1)c1ccc2c(ccn2C2CCNCC2)c1` [Example E22, 5-[(3-Fluorophenyl)sulfonyl]-1-(4-piperidinyl)-1H-indole hydrochloride], the Ki was no more than 10 nM.

With `COc1cccc(S(=O)(=O)c2ccc3c(c2)CCN3C2CCNCC2)c1` [Example E23, 5-{[3-(Methyloxy)phenyl]sulfonyl}-1-(4-piperidinyl)-2,3-dihydro-1H-indole hydrochloride], the Ki is no more than 10 nM.

Take `O=S(=O)(c1cccc(Cl)c1)c1ccc2c(c1)CCN2C1CCNCC1` [Example E24, 5-[(3-Chlorophenyl)sulfonyl]-1-(4-piperidinyl)-2,3-dihydro-1H-indole hydrochloride]: the Ki was no more than 10 nM.

Take `O=S(=O)(c1ccc(F)c(F)c1)c1ccc2c(c1)CCN2C1CCNCC1` [Example E25, 5-[(3,4-Difluorophenyl)sulfonyl]-1-(4-piperidinyl)-2,3-dihydro-1H-indole hydrochloride]: the Ki is no more than 10 nM.

Consider `Cc1cccc(S(=O)(=O)c2ccc3c(c2)CCN3C2CCNCC2)c1` [Example E26, 5-[(3-Methylphenyl)sulfonyl]-1-(4-piperidinyl)-2,3-dihydro-1H-indole hydrochloride], for which the Ki is no more than 10 nM.

On to `O=S(=O)(c1ccc2c(c1)CCN2C1CCNCC1)c1cc(F)ccc1F` [Example E27, 5-[(2,5-Difluorophenyl)sulfonyl]-1-(4-piperidinyl)-2,3-dihydro-1H-indole hydrochloride], for which the Ki was no more than 10 nM.

As to `Cc1nc(C)c(S(=O)(=O)c2ccc3c(c2)CCN3C2CCNCC2)s1` [Example E28, 5-[(2,4-Dimethyl-1,3-thiazol-5-yl)sulfonyl]-1-(4-piperidinyl)-2,3-dihydro-1H-indole hydrochloride], the Ki is no more than 10 nM.

As for `Cc1nn(C)c(C)c1S(=O)(=O)c1ccc2c(c1)CCN2C1CCNCC1` [Example E29, 1-(4-Piperidinyl)-5-[(1,3,5-trimethyl-1H-pyrazol-4-yl)sulfonyl]-2,3-dihydro-1H-indole hydrochloride], the Ki was less than 316 nM.

Consider `CN1CCC(N2CCc3cc(S(=O)(=O)c4ccccc4)ccc32)C1` (stereo not drawn) [Example E30, 1-(1-Methyl-3-pyrrolidinyl)-5-(phenylsulfonyl)-2,3-dihydro-1H-indole hydrochloride], for which the Ki was no more than 10 nM.

As to `CN1CCCC(N2CCc3cc(S(=O)(=O)c4ccccc4)ccc32)CC1` (stereo not drawn) [Example E31, 1-(1-Methylhexahydro-1H-azepin-4-yl)-5-(phenylsulfonyl)-2,3-dihydro-1H-indole hydrochloride], the Ki is no more than 10 nM.

For the compound `CN1CCC(N2CCc3cc(S(=O)(=O)c4ccccc4)cc(Cl)c32)CC1` [Example E32, 7-Chloro-1-(1-methyl-4-piperidinyl)-5-(phenylsulfonyl)-2,3-dihydro-1H-indole hydrochloride], the Ki is no more than 10 nM.

For `CCN1CCC(n2ccc3cc(S(=O)(=O)c4cccc(F)c4)ccc32)CC1` [Example E33, 1-(1-Ethyl-4-piperidinyl)-5-[(3-fluorophenyl)sulfonyl]-1H-indole hydrochloride], the Ki is no more than 10 nM.

Turning to `CCCN1CCC(N2CCc3cc(S(=O)(=O)c4cc(F)cc(F)c4)ccc32)CC1` [Example E34, 5-[(3,5-Difluorophenyl)sulfonyl]-1-(1-propyl-4-piperidinyl)-2,3-dihydro-1H-indole hydrochloride], the Ki is no more than 10 nM.

Regarding `CCN1CCC(n2ccc3cc(S(=O)(=O)c4cc(F)cc(F)c4)ccc32)CC1` [Example E35, 1-(1-Ethyl-4-piperidinyl)-5-[(3,5-difluorophenyl)sulfonyl]-1H-indole hydrochloride], the Ki was no more than 10 nM.

Consider `CC(C)N1CCC(N2CCc3cc(S(=O)(=O)c4ccccc4)ccc32)CC1` [Example E36, 1-[1-(1-Methylethyl)-4-piperidinyl]-5-(phenylsulfonyl)-2,3-dihydro-1H-indole], for which the Ki was no more than 10 nM.
